Values quoted from earlier work in patent US12121558B2 (priority 2019, dated 2024).

In the case of `O=c1c(O)c(-c2ccc(O)c(O)c2)oc2cc(O)cc(O)c12` [quercetin, Quercetin], the elimination half-life (after oral ingestion of quercetin containing foods or supplements) is listed as 1 to 2 h and the bioavailability (in humans, low and highly variable) is listed as 0-50%.
